Experimental data as given in ChEMBL document CHEMBL1201862, “PubChem BioAssay data set” (2004).
The source made the active and inactive calls.

Assays:
[1] = Late stage counterscreen for inhibitors of Trypanosoma brucei methionyl tRNA synthetase (MetRS): Luminescence-based cell-based high throughput dose response assay to identify compounds that are cytotoxic to Jurkat human T lymphocyte cells.; assay type: functional
[2] = BHK-21 cell cytotoxicity, cytotoxicity control for flavivirus guanylyltransferase probe project, secondary screen (AID 624078); assay type: functional
Protein Tat = Protein Tat (Human immunodeficiency virus type 1 group M subtype B (isolate HXB2)(HIV-1), UniProt P04608); assay type: functional;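 further: tat binding to TAR RNA read out by fluorescence polarization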
Paired box protein Pax-8 = Paired box protein Pax-8 (Homo sapiens, UniProt Q06710); test: inhibitors of PAX8-driven TPO luciferase reporter, dose response, RMG-I cells, cherry-pick (AID 687027); assay type: functional, cell-based;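 further: luciferase reporter driven by Pax8 target thyroperoxidase promoter measured by SteadyGlo luminescence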
[3] = NIH:OVCAR-3 ovarian cancer cell cytotoxicity, dose response, PAX8 inhibitor project, plate reader, dry powder samples (AID 743044); assay type: functional, cell-based
[4] = IGROV1 ovarian cancer cell cytotoxicity, dose response, PAX8 inhibitor project, plate reader, dry powder samples (AID 743043); assay type: functional, cell-based; conditions: IGROV-1
[5] = non-specific cell cytotoxicity, dose response, cytotoxicity control for PAX8 inhibitor project, plate reader, dry powder samples (AID 743021); assay type: functional, cell-based
[6] = target: NAD-dependent protein deacylase sirtuin-5, mitochondrial (Homo sapiens, UniProt Q9NXA8); test: SIRT5 deacylase inhibitors, dose response, biochemical, fluorescence imaging, cherry-pick, set 6 (AID 720597)
[7] = cytotoxicity in OVCAR8 ovarian cancer cells, dose response, PAX8 project, cell-based, plate reader, dry powder samples (AID 743197); assay type: functional; conditions: OVCAR-8
[8] = HepG2 cell cytotoxicity, dose response, cytotoxicity control, cherry-picks, set 5 (AID 1053118); assay type: functional, cell-based
[9] = HEK293 cell cytotoxicity, dose response, cytotoxicity control, cherry-picks, set 5 (AID 1053117); assay type: functional, cell-based
[10] = A549 cell cytotoxicity, dose response, cytotoxicity control, cherry-picks, 26 µM top dose (AID 1053119); assay type: functional, cell-based
[11] = inhibitors of fibronectin matrix deposition, dose response, AH1F cells, Alexa488-FN fluorescence, cherry-picks (AID 1035475); assay type: functional, cell-based
[12] = PAX2 cell-based inhibition, dose response, selectivity assay for PAX8 inhibitor project, plate reader, dry powder samples (AID 743048); assay type: functional;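 further: HEK293 cells carrying a WT1 promoter luciferase reporter driven by expressed Pax2; potency is for inhibition of Pax2 driven reporter signal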
[13] = PAX5 activity inhibitors, dose response, selectivity assay for PAX8 inhibitor project, cell-based, plate reader, dry powder samples (AID 743047); assay type: functional;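 further: HEK293 cells carrying a Pax5 driven CD19 promoter luciferase reporter; potency of inhibitors that lower reporter luminescence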
[14] = cytotoxicity in OV-90 ovarian cancer cells, dose response, PAX8 inhibitor project, cell-based, plate reader, dry powder, SA8 (AID 743149); assay type: functional
[15] = cytotoxicity dependent on PAX8, dose response, cell-based, plate reader, dry powder (AID 743049); assay type: functional
[16] = P. falciparum Dd2 growth inhibitors, dose response, SYBR Green, cherry-picked samples (AID 1159567); assay type: functional, cell-based
[17] = HepG2 cell cytotoxicity, dose response, cytotoxicity control, cherry-picked samples (AID 1159577); assay type: functional, cell-based
[18] = target: Protein-tyrosine kinase 2-beta (Homo sapiens, UniProt Q14289);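 further: potency of inhibitors of PYK2 kinase phosphorylation of poly-GT substrate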
Major prion protein = Major prion protein (Homo sapiens, UniProt P04156); assay type: functional, cell-based
Cytochrome P450 2D6 = Cytochrome P450 2D6 (Homo sapiens, UniProt P10635);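 further: CYP2D6 member of a cytochrome P450 panel assay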
Cytochrome P450 2C9 = Cytochrome P450 2C9 (Homo sapiens, UniProt P11712)
[19] = target: Peroxisome proliferator-activated receptor gamma/Nuclear receptor coactivator 1 (Homo sapiens, UniProt P37231); test: (§1) TR-FRET dose response biochemical High Throughput Screening assay for agonists of the steroid receptor coactivator 1 (SRC-1) recruitment by the peroxisome proliferator-activated receptor gamma (PPAR gamma): non-selective agonists. [Related pubchem assays (depositor defined):AID1300, AID1808, AID504735, AID631]; assay type: protein assay
[20] = target: Peroxisome proliferator-activated receptor gamma/Nuclear receptor coactivator 3 (Homo sapiens, UniProt P37231); test: as §1, with “3 (SRC-3)” for “1 (SRC-1)”, “assays: 1301 (Confirmation screen.), 1048 (Primary screen.)]” for “assays (depositor defined):AID1300, AID1808, AID504735, AID631]”; assay type: functional
[21] = target: Peroxisome proliferator-activated receptor gamma/Nuclear receptor coactivator 2 (Homo sapiens, UniProt P37231); test: TR-FRET dose response biochemical High Throughput Screening assay for agonists of the steroid receptor coactivator 2 (SRC-2) recruitment by the peroxisome proliferator-activated receptor gamma (PPAR gamma): non-selective agonists. [Related pubchem assays: 1297, 1032 ]; assay type: functional
Protein skinhead-1 = target: T1, Protein skinhead-1 (Caenorhabditis elegans, UniProt P34707); assay type: functional
T1 sequence (P34707 whole entry): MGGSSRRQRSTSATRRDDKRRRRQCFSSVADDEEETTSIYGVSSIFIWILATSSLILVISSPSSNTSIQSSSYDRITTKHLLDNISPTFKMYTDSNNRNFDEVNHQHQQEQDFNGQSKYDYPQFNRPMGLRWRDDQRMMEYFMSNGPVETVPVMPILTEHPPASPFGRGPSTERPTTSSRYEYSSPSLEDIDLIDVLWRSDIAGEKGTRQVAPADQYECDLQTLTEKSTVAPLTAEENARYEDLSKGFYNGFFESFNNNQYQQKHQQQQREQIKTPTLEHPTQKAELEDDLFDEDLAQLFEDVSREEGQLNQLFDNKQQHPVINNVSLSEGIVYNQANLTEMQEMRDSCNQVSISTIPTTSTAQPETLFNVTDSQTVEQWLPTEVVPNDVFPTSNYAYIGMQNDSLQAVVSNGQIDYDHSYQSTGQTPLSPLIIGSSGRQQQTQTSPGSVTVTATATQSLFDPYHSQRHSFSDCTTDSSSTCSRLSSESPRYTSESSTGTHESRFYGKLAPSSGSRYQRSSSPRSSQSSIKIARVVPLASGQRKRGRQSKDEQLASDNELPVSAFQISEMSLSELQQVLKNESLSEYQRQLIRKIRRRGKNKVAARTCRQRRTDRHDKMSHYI

[22] = ADAM10 inhibitors, peptide cleavage, dose response, biochemical, QFRET (AID 743254);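 further: ADAM10 enzyme with the DM2 quenched FRET peptide as substrate; EDANS fluorescence gain as the protease cuts the substrate; inhibitor potency against ADAM10 proteolytic activity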
[23] = target: Disintegrin and metalloproteinase domain-containing protein 17 (Homo sapiens, UniProt P78536); test: ADAM17 protease inhibitors, dose response, counter-screen for ADAM10 exosite inhibitor project, biochemical, quenched FRET substrate (AID 743253)
[24] = target: Kappa-type opioid receptor (Homo sapiens, UniProt P41145); test: OPRK1 antagonists, late-stage follow-up, cell-based, fluorescence, dose response (AID 652032); assay type: functional

With O=C(CCC(=O)Nc1cccc([N+](=O)[O-])c1)NN=Cc1cccs1 the IC50 [1] was > 83.3 µM (inactive).
For Cn1c(=O)c2[nH]c(-c3ccc(Cl)cc3)c(O)c2n(C)c1=O, the CC50 [2] was > 100 µM (active).
In the case of COC(=O)C(C)Sc1nnc(Cc2cc(O)nc(O)n2)n1-c1cc(C)ccc1C (stereo not drawn), the IC50 (Protein Tat) is reported as > 100 µM (active).
With C[C@@H]1CCCCO[C@H](CN(C)Cc2ccc(Cl)c(Cl)c2)[C@@H](C)CN([C@@H](C)CO)C(=O)c2cc(NS(=O)(=O)c3ccccc3)ccc2O1 the AC50 (Paired box protein Pax-8) was 5 µM (active), the AC50 [3] was 21.2 µM (active) and the AC50 [4] was 44.6 µM (active). For the same compound, the AC50 [5] was 2.38 µM (active).
With C[C@@H]1CCCCO[C@H](CN(C)Cc2ccc(C(F)(F)F)cc2)[C@@H](C)CN([C@@H](C)CO)C(=O)c2cc(NS(=O)(=O)c3ccccc3)ccc2O1 the AC50 (Paired box protein Pax-8) was 4.17 µM (active), the AC50 [6] was 23.5 µM (active) and the AC50 [7] was 67.5 µM (active).
With CO[C@@H]1CN(C)C(=O)c2ccc(NC(=O)Nc3ccc(Cl)c(Cl)c3)cc2OC[C@@H](C)NC[C@@H]1C the AC50 [8] was 24.2 µM (active), the AC50 [9] was 20.4 µM (active) and the AC50 [10] was 13.1 µM (active). The AC50 [11] was 36.8 µM (active).
For C[C@H]1CN([C@@H](C)CO)C(=O)Cc2cc(NC(=O)NC3CCCCC3)ccc2O[C@@H]1CN(C)Cc1ccc(-c2ccccc2)cc1, the AC50 (Paired box protein Pax-8) was 14.5 µM (active), the AC50 [12] was 19.3 µM (active) and the AC50 [13] was 20.8 µM (active). The AC50 [14] was > 70 µM (inactive) and the AC50 [15] was > 70 µM (inactive).
For CCS(=O)(=O)N1CC2(C1)[C@@H](c1ccccc1)[C@H](CO)N2Cc1ccc(F)cc1, the AC50 [16] was 6 µM (active) and the AC50 [17] was > 39 µM (inactive).
In the case of CCc1nc(SCC(=O)NNC(=O)C2CCCCC2)c2ccccc2n1, the IC50 [18] is reported as > 69.5 µM (not active), the IC50 (Major prion protein) is reported as 1.18 µM (active) and the AC50 (Cytochrome P450 2D6) is reported as “inconclusive”. For the same compound, the AC50 (Cytochrome P450 2C9) was “inconclusive” and the IC50 (cells) was > 138 µM (inactive).
For COc1ccc2nc(SCC(=O)Nc3ccc(S(=O)(=O)N4CCCC4)cc3)c(C#N)cc2c1, the EC50 [19] was 7.32 µM (active), the EC50 [20] was > 26.5 µM (not active) and the EC50 [21] was 7.11 µM (active). The IC50 (Protein skinhead-1) was > 100 µM (inactive), the IC50 [22] was > 69.5 µM (inactive) and the IC50 [23] was > 69.5 µM (inactive).
For COC(=O)c1cc(Br)cnc1N1CCC(OC2CCCCC2O)CC1 (stereo not drawn), the IC50 [24] was > 50 µM (inactive).
